Assay results reported in patent US11440880B2, “Thalidomide analogs and methods of use” (The USA, as represented by the Secretary, Department of …, priority 2015, dated 2022).

What was measured:
[1] = test system: mpo:GFP zebrafish embryos (neutrophil migration to the wound site); test: mpo:GFP zebrafish fin-clip neutrophil migration (inflammation) assay; format: in vivo; design: mpo:GFP inflammation n (survived/tested): concentration or dose not given beside the values; conditions: for minimal effective concentration: Danio rerio, Neutrophil, lowest concentration producing an effect, compounds not producing an effect shown at the highest evaluated concentration; for mpo:GFP inflammation n (survived/tested): embryos survived/tested at the concentration given
Text: (§1) Zebrafish embryology: The use of zebrafish embryo (Danio rerio) bioassays as a preclinical model in the classification of novel compounds has increased in recent years due to several factors including; low cost, ease of maintenance, speed of embryonic development, transparency of the embryos and genetic conservation between zebrafish and humans (Howe et al., Nature 2013; 496:498; Therapontos et al., PNAS 2009, 106:8573; Mahony et al., PNAS 2013, 110:12703; Beedie et al., Oncotarget 2016, 7(22):33237; Beedie et al., Mol. Cancer Ther. 2015, 14(10):2228). Two established zebrafish reporter lines were used—the fli1:EGFP line, where the fli1 promoter drives expression of enhanced green fluorescent protein within the developing vasculature (Lawson et al., 2002), and the Tg(mpo::EGFP) line (also known as mpo:GFP), which expresses green fluorescent protein via the neutrophil specific myeloperoxidase promoter (Renshaw et al., Blood 2006, 108:3976). The use of these zebrafish transgenic reporter lines allows for the identification of potential anti-angiogenic and anti-inflammatory compounds respectively, and both have been used previously to successfully classify the action of thalidomide analogs (Therapontos et al., 2009; Mahony et al., 2013; Beedie et al., Oncotarget 2016, 7(22):33237; Beedie et al., Mol. Cancer Ther. 2015, 14(10):2228). Zebrafish embryos were treated with analogs as previously described (Mahony et al., 2013). Briefly, fli1:EGFP embryos were collected and embryos were allowed to develop for 24 hours. Embryos were dechorionated manually and exposed to test compounds or vehicle control for a further 24 hours, imaged and analyzed for intersegmental vessel (ISV) growth. At 24 hours post fertilisation (hpf) the ISVs were ideal to study to visualize and analyze the actions of compounds on angiogenesis. At this time point ISVs were rapidly forming beneath the developing head, over the body and had yet to form in the tail (Lawson and Weinstein, Developmental Biology 2002, 248:307; Therapontos and Vargesson, Developmental Dynamics 2010, 239:2761). Additionally, these sprouts would go on to form the bilateral dorsal longitudinal anastomotic vessels. By treating before this fusion and formation occurs, the effect of each compound on the individual vessels as well as overall patterning structural integrity (Isogai et al., Development 2003, 130:5281) could be determined. Tg(mpo::EGFP) were tail fin clipped as previously detailed (Renshaw et al., 2006; Mahony et al., 2013; Beedie et al., Oncotarget 2016, 7(22):33237; Beedie et al., Mol. Cancer Ther. 2015, 14(10):2228) and incubated with test compounds or vehicle control at 72 hours post fertilization. Fish were imaged at 24 hours and the number of migratory neutrophils present at the wound site were counted. Compounds inducing an at least 50% reduction of neutrophils to the wound site were considered to have anti-inflammatory properties in this system. All larvae were assessed for viability and morphological integrity.
To assess the immunomodulatory effects of the thalidomide analogs, the mpo:gfp transgenic zebrafish line (Renshaw et al., Blood 2006, 108:3976-3978) was utilized because it is an accepted model of inflammation, and can be used to test the effect of anti-inflammatory agents. These embryos express GFP-tagged myeloperoxidase, where green fluorescence marks the neutrophil cells involved in the inflammatory response process, for example following injury, from 72 hours post fertilization (Renshaw et al., 2006; Mahony et al., 2013; Beedie et al., Oncotarget 2016, 7(22):33237). At 72 hpf the dorsal third of the tail fin was removed and the embryos were immersed in the desired compound or vehicle (FIGS. 5A-5C). The embryos were examined for the effect on the inflammatory response quantified as an induction and migration of neutrophils to the wound site 24 hours later.

RAW 264.7 cells = test: Cell viability (CellTiter 96 AQueous One) of LPS-challenged RAW 264.7 cells; format: cell-based, mouse; design: key: NS=not significant; a “+” sign=anti-inflammatory or increased cell numbers; a “−” sign=cell toxicity or pro-inflammatory
Procedure, shortened: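 RAW 264.7 murine macrophages pretreated 1 h with compound or DMSO vehicle, then challenged with LPS (serotype 055:B5) at 30 or 60 ng/mL final for 24 h. After media replacement, viability measured by tetrazolium (MTS) conversion, absorbance at 490 nm, reported as O.D.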

[2] = test system: nitrite levels in the culture media; test: Nitrite level (Griess Reagent System) in LPS-challenged RAW 264.7 cells; format: cell-based, mouse; design: key: NS=not significant; a “+” sign=anti-inflammatory or increased cell numbers; a “−” sign=cell toxicity or pro-inflammatory; conditions: LPS 30 or 60 ng/mL, 24 h
Method: Nitrite levels in the culture media were measured by use of the Griess Reagent System (Promega, Madison, Wis.), following the manufacturer's protocol. The O.D. of unknown samples was read at 520 nm λ, compared to a sodium nitrite standard curve (1.5 μM to 100 μM) and nitrite measured media concentrations expressed as μM units. As the lowest nitrite concentration on the Griess Reagent System standard curve was 1.5 μM, this was chosen as the effective cutoff for defining measurable nitrite concentrations. TNF-α protein levels were measured by use of an ELISA specific for mouse TNF-α protein (BioLegend, San Diego, Calif.) and are expressed as a % change from their appropriate control or as pg/ml.
RAW 264.7 cells obtained from ATCC (Manassas, Va., USA) were grown in DMEM media supplemented with 10% FCS, penicillin 100 μg/ml and streptomycin 100 μg/ml, and maintained at 37° C. and 5% CO2. Cells were seeded in 24 well plates and, 24 hours later, were utilized in studies. One hour prior to the initiation of any study, the seeding media was replaced with fresh media (1 mL), and the cells were allowed to equilibrate at 37° C. and 5% CO2.
RAW 264.7 cells were challenged with LPS (Sigma, St Louis, Mo.: serotype 055:B5) from at a final concentration of 30 or 60 ng/mL. This concentration of LPS in RAW 264.7 cells induces a sub-maximal rise in both TNF-alpha and nitrite levels without a loss in cellular viability. This sub-maximal rise is useful for assessing whether the addition of an experimental drug can either lower or further raise levels of TNF-α and nitrite. Twenty four hours following the addition of LPS, conditioned media was harvested and analyzed for quantification of secreted TNF-α protein and nitrite levels. Fresh media was replaced into the wells and cell viability was then assessed.
Thalidomide and analogs were prepared in tissue culture grade DMSO (Sigma). RAW 264.7 cells were pretreated with thalidomide, analogues or vehicle one hour prior to a challenge with LPS. The effects of various concentrations of thalidomide analogues were assessed. All compounds were synthesized to a chemical purity of >99.5%, as assessed by chemical characterization by a combination of 1H NMR, 13C NMR and GC/MS analyses (Bruker AC-300 spectrometer, together with elemental analyses (Atlantic Microlab, Inc., Norcross, Ga.).

TNF-α protein = TNF-α protein level (ELISA) in LPS-challenged RAW 264.7 cells; format: cell-based, mouse; design: key: NS=not significant; a “+” sign=anti-inflammatory or increased cell numbers; a “−” sign=cell toxicity or pro-inflammatory; conditions: LPS 30 or 60 ng/mL, 24 h
Procedure, shortened: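 RAW 264.7 cells pretreated 1 h with compound in DMSO vehicle, then challenged with LPS (30 or 60 ng/mL) for 24 h at 37° C. Conditioned-media nitrite by Griess (520 nm, sodium nitrite standard curve, 1.5 μM cutoff) in μM; mouse TNF-α by ELISA as pg/ml or % change from control.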

[3] = test system: fli1:EGFP zebrafish embryos (intersegmental vessel growth); test: fli1:EGFP zebrafish embryo angiogenesis assay; format: in vivo; design: fli1:EGFP angiogenesis n (survived/tested): concentration or dose not given beside the values; conditions: for minimal effective concentration: Danio rerio, lowest concentration producing an effect, compounds not producing an effect shown at the highest evaluated concentration; for fli1:EGFP angiogenesis n (survived/tested): embryos alive after 24 hours of exposure
Text: as §1
To determine if the thalidomide analogs had any effect on angiogenesis, fli1:EGFP embryos (Lawson and Weinstein, Developmental Biology 2002, 248:307-318) were exposed to either vehicle or a compound of interest, over a range of concentrations and over a range of time points starting at 24 hpf. Images were obtained at three time points over 24 hours after exposure to the compounds. The best concentration and time point were selected. CPS49, a compound that is chemically and structurally similar to thalidomide breakdown products, and is tetrafluorinated (which adds stability and bioactivity to the compound) and that causes severe limb defects in chicken embryos, was used as a positive control. The embryos were imaged at 48 hpf (FIGS. 3A3L) and analyzed for both vessel formation and the extent of growth of the vasculature. […]

SMILES | minimal effective concentration [1] [µg/mL] | mpo:GFP inflammation n (survived/tested) [1] | anti-inflammatory activity (inhibition of neutrophil migration) ([1]; in words) | Viability (RAW 264.7 cells; 1 μM) | Viability (RAW 264.7 cells; 10 μM) | Viability (RAW 264.7 cells; 30 μM) | Nitrite ([2]; 1 μM) | Nitrite ([2]; 10 μM) | Nitrite ([2]; 30 μM) | TNF-α (TNF-α protein; 1 μM) | TNF-α (TNF-α protein; 10 μM) | TNF-α (TNF-α protein; 30 μM) | minimal effective concentration [3] [µg/mL] | fli1:EGFP angiogenesis n (survived/tested) [3]
O=C1CCC(N2C(=O)c3ccncc3C2=O)C(=O)N1 (centres unmarked) [Compound 58] | 5 | 7/16 | most effective analog at inhibiting the inflammatory response | NS | NS | NS | + | + | + | NS | NS | NS | 10 | 33/33
O=C1c2ccccc2C(=O)N1c1nc2ccc(C(F)(F)F)cc2s1 [Compound 59, 2-(6-Trifluoromethyl-benzothiazol-2-yl)-1H-isoindole-1,3(2H)-dione] | 100 | 6/11 |  | NS | NS | NS | + | NS | + | NS | NS | + | 10 | 21/32
O=C1c2cccc(O)c2C(=O)N1c1nc2ccc(C(F)(F)F)cc2s1 [Compound 61] | 1 | 9/20 |  | NS | NS | − | NS | + | + | NS | NS | + | 100 | 3/15
O=C1c2ccccc2CN1c1nc2ccc(C(F)(F)F)cc2s1 [Compound 62] | 10 | 6/20 |  | NS | NS | NS | NS | NS | + | NS | NS | NS | 10 | 18/20
